Source: PubChem BioAssay (NCI)
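Where inhibition never reached the appropriate level, the endpoint shown equals the highest concentration tested. Otherwise, values were interpolated linearly from a five-concentration, 48-hour dose response in 96-well plates. GI50 is the concentration that inhibits growth by half. At the TGI there is no net growth.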

What was measured:
Experiment in all cases: NCI tumour cell line growth inhibition, 48 h
ACHN renal = test system: ACHN renal
CCRF-CEM leukemia = test system: CCRF-CEM leukemia
NCI-H460 lung = test system: NCI-H460 lung
PC-3 prostate = test system: PC-3 prostate
SK-OV-3 ovarian = test system: SK-OV-3 ovarian
SN12C renal = test system: SN12C renal
SW-620 colon = test system: SW-620 colon
TK-10 renal = test system: TK-10 renal
UACC-257 melanoma = test system: UACC-257 melanoma
HOP-62 NSCLC = test system: HOP-62 NSCLC

| Structure (SMILES) | TGI (ACHN renal) | TGI (CCRF-CEM leukemia) | TGI (NCI-H460 lung) | TGI (PC-3 prostate) | TGI (SK-OV-3 ovarian) | TGI (SN12C renal) | TGI (SW-620 colon) | TGI (TK-10 renal) | TGI (UACC-257 melanoma) | TGI (HOP-62 NSCLC) | GI50 (ACHN renal) | GI50 (CCRF-CEM leukemia) | GI50 (HOP-62 NSCLC) | GI50 (NCI-H460 lung) | GI50 (PC-3 prostate) | GI50 (SN12C renal) | GI50 (SW-620 colon) | GI50 (TK-10 renal) | GI50 (UACC-257 melanoma) |
| --- | --- | --- | --- | --- | --- | --- | --- | --- | --- | --- | --- | --- | --- | --- | --- | --- | --- | --- | --- |
| COc1ccc(N[C@H](CS(=O)c2ccc(C)cc2)C(F)(F)F)cc1 (stereo not given in full) | > 100 µM | > 100 µM | > 100 µM | > 100 µM | > 100 µM | > 100 µM | > 100 µM | > 100 µM | > 100 µM |  |  |  |  |  |  |  |  |  |  |
| COP(=O)(/C=C/C(NC(=O)C(Cl)(Cl)Cl)c1ccccc1)OC (stereo not given) | > 100 µM |  | > 100 µM | > 100 µM | > 100 µM | > 100 µM | > 100 µM | > 100 µM | > 100 µM | > 100 µM |  |  |  |  |  |  |  |  |  |
| CSc1c(C(N)=S)c(N)nn1-c1ccccc1 |  |  | > 100 µM | > 100 µM | > 100 µM | > 100 µM | > 100 µM | > 100 µM | > 100 µM |  |  |  |  |  |  |  |  |  |  |
| Cc1cn(C(CO)OC(CO)CN(O)C2C3CC4CC(C3)CC2C4)c(=O)[nH]c1=O (stereo not given) | > 100 µM |  | > 100 µM | > 100 µM | > 100 µM | > 100 µM | > 100 µM | > 100 µM | > 100 µM | > 100 µM |  |  |  |  |  |  |  |  |  |
| C[C@@H](c1ccccc1)N1C[C@@H](c2ccc3c(c2)OCO3)[C@@H]2C(=O)CCC[C@@H]21 | 67.2 µM | > 100 µM | > 100 µM | > 100 µM | > 100 µM | > 100 µM |  | > 100 µM | > 100 µM | > 100 µM |  |  |  |  |  |  |  |  |  |
| C/C1=C\[C@@H](C)C[C@@H](C)OC(=O)[C@@H](C)NC(=O)[C@H](Cc2ccc(O)c(Br)c2)N(C)C(=O)CNC(=O)[C@H](C)C1 | 0.249 µM | < 0.01 µM | > 69.1 µM | 5.04 µM | 5.26 µM | > 100 µM | > 100 µM | 0.26 µM | 27.2 µM |  |  |  |  |  |  |  |  |  |  |
| COc1cc(/C=C2\N=C(c3ccccc3)N(c3nc4ccccc4s3)C2=O)cc(OC)c1OC | 84.5 µM |  | > 100 µM | > 100 µM |  | 82.4 µM | > 100 µM | > 100 µM | > 100 µM | > 100 µM |  |  |  |  |  |  |  |  |  |
| COC1CC(O[C@H]2CC[C@@]3(C)C(=CCC4(O)C3CCC35C(=O)OC6(C)O[C@@]43CCC65)C2)OC(C)C1O (stereo not given in full) | > 100 µM | > 100 µM | > 100 µM |  | > 100 µM | > 100 µM |  | > 100 µM | > 100 µM | > 100 µM |  |  |  |  |  |  |  |  |  |
| OC(c1cc2ccccc2[nH]1)C(O)(c1cc2ccccc2[nH]1)c1cc2ccccc2[nH]1 (stereo not given) | 50.1 µM | > 245 µM | 51.3 µM |  | 79.1 µM | 11.4 µM | 43.1 µM | 90.3 µM | 64.6 µM | 48.3 µM |  |  |  |  |  |  |  |  |  |
| COc1ccc2nc(N/N=C/c3ccc(C)s3)cc(C)c2c1 | 37.8 µM | > 100 µM |  | 35.9 µM | 45 µM | 38.3 µM | > 100 µM | > 100 µM | 39.4 µM | 39.6 µM |  |  |  |  |  |  |  |  |  |
| C[C@H](CCC(=O)O)[C@H]1CC[C@H]2[C@@H]3[C@H](O)[C@H](O)[C@@H]4C[C@H](O)CC[C@]4(C)[C@H]3CC[C@]12C | > 100 µM | > 100 µM | > 100 µM | > 100 µM |  | > 100 µM | > 100 µM | > 100 µM | > 100 µM | > 100 µM |  |  |  |  |  |  |  |  |  |
| CS(=O)(=O)c1ccc(C(=O)O[C@@H]2C(=O)N3CC[C@H]4OC(O)[C@@H]2[C@H]43)cc1 (stereo not given in full) | > 100 µM |  | > 100 µM | > 100 µM | > 100 µM |  | > 100 µM | > 100 µM | > 100 µM | > 100 µM |  |  |  |  |  |  |  |  |  |
| N=C1c2ccccc2C(=O)c2c(NCCNCCO)ccc(O)c21 | 57 µM | 53.9 µM | 15.1 µM |  | 50.2 µM | 31.7 µM | 15.8 µM | > 62.3 µM | > 51.6 µM | 22.5 µM |  |  |  |  |  |  |  |  |  |
| CC(=O)OC(OC(C)=O)c1c2ccccc2cc2ccccc12 | 61.4 µM | 18 µM | 31.8 µM | 90.5 µM | 52.4 µM | 63.4 µM | > 100 µM | 61.2 µM | 41 µM |  |  |  |  |  |  |  |  |  |  |
| CC(=O)/C(=C/N1CC(=O)NC1=S)C(=O)Nc1ccccc1C | > 100 µM |  | > 100 µM |  | > 100 µM | > 100 µM | > 100 µM | > 100 µM | > 100 µM | > 100 µM |  |  |  |  |  |  |  |  |  |
| O=C(CSc1nc2ccc(I)cc2c(=O)n1Cc1ccccc1)NNC(=S)Nc1ccccc1 | > 100 µM | > 100 µM | > 100 µM | > 100 µM | > 100 µM | > 100 µM | > 100 µM | > 100 µM | 98.7 µM |  |  |  |  |  |  |  |  |  |  |
| CCOP(=O)(OCC)/C(=C\n1ccc(=O)[nH]c1=S)C(=O)OC | > 100 µM | > 100 µM | > 100 µM | > 100 µM | > 100 µM | > 100 µM | > 100 µM |  | > 100 µM | > 100 µM |  |  |  |  |  |  |  |  |  |
| Cc1cc(OP2(=O)NCc3ccncc3O2)ccc1Cl (stereo not given) | > 100 µM | > 100 µM | > 100 µM | > 100 µM |  | > 100 µM | > 100 µM |  | > 100 µM | > 100 µM |  |  |  |  |  |  |  |  |  |
| COc1c(O)cc2c(c1O)C(=O)C(Cc1ccc(O)cc1)CO2 (stereo not given) | > 100 µM |  | > 100 µM | > 100 µM | > 100 µM | > 100 µM | > 100 µM | > 100 µM | > 100 µM | > 100 µM |  |  |  |  |  |  |  |  |  |
| CC(C)(Oc1ccc2c(=O)cc(-c3ccc(Cl)cc3)oc2c1)C(=O)Nc1c(Cl)cccc1Cl |  | > 100 µM | > 100 µM |  | > 100 µM |  | > 100 µM | > 100 µM | > 100 µM | > 100 µM |  |  |  |  |  |  |  |  |  |
| CC1=C(O)C(=O)C2C(=O)C1C(C)C2c1ccccc1 (stereo not given) | > 100 µM | > 100 µM |  |  | > 100 µM |  | > 100 µM | > 100 µM | > 100 µM | > 100 µM |  |  |  |  |  |  |  |  |  |
| C[n+]1c2ccccc2n2c3ccccc3c(NCc3ccco3)c(C#N)c21 | 9.08 µM |  | 4.19 µM | 22.7 µM | 39.8 µM | 9.82 µM | 4.01 µM | 11.3 µM | 57.4 µM | 11.4 µM |  |  |  |  |  |  |  |  |  |
| O=C(N/N=C\c1ccc(N(CCCl)CCCl)cc1)c1cccnc1 | > 100 µM | > 100 µM | > 100 µM | > 100 µM |  | > 100 µM | > 100 µM | > 100 µM | > 100 µM | > 100 µM | 31.6 µM | 5.91 µM | 31.5 µM | 3.83 µM | 65.4 µM | 20.6 µM | > 100 µM | 33.4 µM | 60.6 µM |
